Experimental data: paper PMC9655717, “New Molecules of Diterpene Origin with Inhibitory Properties toward α-Glucosidase” (International Journal of Molecular Sciences, 2022)
Converted amounts (≈) assume the structure as drawn. Like-named read-outs stand apart in the source and are kept apart here.

Experiments:
[1] = DPPH radical scavenging assay; conditions: DPPH 0.1 mM in methanol, 25°C, 30 min
Experimental: DPPH radical scavenging assay as described by Ha. The hydrogen atom donating ability of the plant extractives was determined by the decolorization of methanol solution of 2,2-diphenyl-1-picrylhydrazyl (DPPH). DPPH produces purple color in methanol solution and fades to shades of yellow color in the presence of antioxidants. […]
DPPH (0.1 mM) was diluted in methanol. 200 μL of this solution was added to 1.3 μL of various concentrations of compounds in DMSO (256.0, 64.0, 16.0, and 4.0 μg/mL). The mixture was performed by a 96-well plate at 25 °C in 30 min. Then, absorbance was determined by Epoch™ Microplate Spectrophotometer (at 517 nm). The percentage of DPPH quenching activity was computed by the following formula:
Inhibitory percentage SC (%) = [(Ao - A1)/Ao] × 100. where AO was defined as the absorbance of control reaction, and A1 represented for the absorbance in the presence of test or standard sample. Each experiment was repeated three times. Quercetin was used as a reference compound. […]

[2] = MTT cytotoxicity assay; conditions: human
Experimental: The cytotoxic activity of compounds was evaluated against four cancer cell lines KB, Hep-G2, Lu-1 and MCF-7, using colorimetric MTT assay. […]
MTT assay was used to determine the cytotoxic activity of compounds with human cancer cell lines acquired from the American Type Culture Collection (ATCC): epidermoid carcinoma (KB, ATCC number CCL-17), hepatocellular carcinoma (HepG2, ATCC number HB-8065), lung adenocarcinoma LU-1 (ATCC number HTB - 57TM), breast adenocarcinoma MCF-7 (ATCC number HTB - 22TM. Cells were cultured in medium DMEM supplemented with 10% Fetal bovine serum (FBS), 1% Penicillin and Streptomycin and 1% L-glutamine, under a humidified atmosphere of 5% CO2 at 37°C.
Compounds were dissolved in DMSO at 40 mg/mL and a series of dilutions for each compound was prepared to final concentrations of 256, 64, 16, 4 and 1 μg/mL. Cells were separated with trypsin and seeded in each well with 3 x10^4 cells per ml and were treated with sample different concentrations on 96-well plates. Untreated cells represented the controls. After 72h of treatment, an MTT solution (10 μl, 5 mg/mL) of phosphate buffer was added to each well for 4 h until intracellular purple formazan crystals are visible. Remove MTT and add DMSO solution (100 μL). The optical density of the solution was determined by Epoch™ Microplate Spectrophotometer at 540 nm. The inhibition ratio was calculated based on the optical densities from the three replicate […]
(§1) are evaluated to have cytotoxic activity.

[3] = biological target: T1, yeast α-GLy (α-glucosidase, Sigma G0660) (Saccharomyces cerevisiae, UniProt P53341); experiment: biochemical; type: biochemical; conditions: yeast α-glucosidase, 37°C, pH 6.8
T1 construct: purchased Sigma G0660
Experimental: S1. Materials and Methods […]
glucosidase inhibition assay. α-Glucosidase enzyme inhibition assay was carried out in a 96-well microplate. The method’s principle based on the hydrolyzed reaction of 4-nitrophenyl-α-D-glucopiranoside with α-glucosidase enzyme into yellow 4- […]
p-Nitrophenyl α-D-Glucoside a- Gl ucosidas e α-D-Glucose + p- Nitrophenol α-Glucosidase inhibitory activity assay was performed following the modified method of Pistia Brueggeman and Hollingsworth with slight modification. Quinopimaric […]
concentrations of 256, 64, 16, 4 and 1 µg/mL. In a 96-well plate, a reaction mixture containing 20 μL of phosphate buffer (100 mM; pH 6.8), 20 μL of α-glucosidase (0.3 U/mL, Sigma G0660) (this concentration was determined by a series of α-glucosidase […]
linearity between the enzyme concentration and the absorbance of yellow color mixture after reaction which was approximately 5-fold higher than the back ground and at least […]
concentrations was pre-incubated for 10 min at 37°C. Then 20 μL of […] p-nitrophenyl α-D-glucopyranoside (Sigma N1377) was added to the mixture as a substrate. After further incubation at 37°C for 30 min, the reaction was stopped by adding 80 μL of 0.1 […]
solution were prepared using the phosphate buffer […]; pH 6.8. […]
as a positive control and water as negative control. The yellow color produced was quantitated by colorimetric analysis and reading the absorbance at 410 nm. Each experiment was performed in triplicates, along with appropriate blanks. The solvent DMSO was use as negative control to evaluate its effect on α-glucosidase activity. […]
or substrate in negative control. Back ground was determined by volume of buffer as […]
The % inhibition has been obtained using the formula:
% inhibition = {Absorbance (control) –Absorbance (sample)}/Absorbance (control) IC50 value is defined as the concentration of samples inhibiting 50% of α-glucosidase activity under the stated assay conditions. […]

[4] = tested on: Escherichia coli (ATCC 25922); experiment: Antimicrobial broth microdilution; type: cell-based; conditions: ATCC25922, E. coli
Experimental: (§2) Table S2. The result of antimicrobial tests of compounds 38, 45, 48 and 50.
(§3) Gram (+) strains Gram (-) strains Fungi
(§4) Compound Values (µg/ml) S. aureus B. L. S. E. P. C. subtilis fermentum enterica coli aeruginosa albican
(§5) The antimicrobial activity was determined by broth microdilution method as reported by. Broth dilution testing is one of the common methods used for determination of the MICs and IC50. The compounds are examined for visible bacterial growth as evidenced by turbidity. […]
(§6) S1.5. In vitro antimicrobial activity study of compounds 38, 45, 48 and 50 The Gram-positive bacteria: Bacillus subtilis (ATCC 6633), Lactobacillus fermentum (N4), Staphylococcus aureus (ATCC 13709); Gram -negative bacteria: Escherichia coli (ATCC 25922), Pseudomonas aeruginosa (ATCC 15442), Salmonella enterica; Yeast: Candida albicans (ATCC 10231) were obtained from American Type Culture Collection. The bacterial […]
(§7) Sabourand 2% dextrose broth, were purchased from Merck. […]
(§8) remaining at –80 0 C. Before assay, they were activated by culture medium and, adjusted the concentration to 5x10^5 CFU/mL. 10 μL of each concentration of each test […]
(§9) further incubated at 37 °C within 16-24h. The experiment was triplicated. Positive […]
(§10) medium without bacteria as a negative control. Ampicillin was used as a reference […]
(§11) inhibiting 50% the visible growth of the tested microorganisms. MIC, IC50 values are typically expressed as molar concentration. […]
(§12) treated with sample different concentrations on 96-well plates. Untreated cells represented the controls. […]
(§13) crystals are visible. Remove MTT and add DMSO solution (100 μL). The optical density […]
as §1

[5] = tested on: Bacillus subtilis (ATCC 6633); experiment: Antimicrobial broth microdilution; type: cell-based; conditions: ATCC6633, B. subtilis
Experimental: as §2, §3, §4, §5, §6, §7, §8, §9, §10, §11, §12, §13, §1

[6] = tested on: Salmonella enterica; experiment: Antimicrobial broth microdilution; type: cell-based; conditions: S. enterica
Experimental: as §2, §3, §4, §5, §6, §7, §8, §9, §10, §11, §12, §13, §1

[7] = tested on: Pseudomonas aeruginosa (ATCC 15442); experiment: Antimicrobial broth microdilution; type: cell-based; conditions: ATCC15442, P. aeruginosa
Experimental: as §2, §3, §4, §5, §6, §7, §8, §9, §10, §11, §12, §13, §1

[8] = tested on: Staphylococcus aureus (ATCC 13709); experiment: Antimicrobial broth microdilution; type: cell-based; conditions: ATCC13709, S. aureus
Experimental: as §2, §3, §4, §5, §6, §7, §8, §9, §10, §11, §12, §13, §1

[9] = tested on: Candida albicans (ATCC 10231); experiment: Antimicrobial broth microdilution; type: cell-based; conditions: ATCC10231, C. albican
Experimental: as §2, §3, §4, §5, §6, §7, §8, §9, §10, §11, §12, §13, §1

[10] = tested on: Lactobacillus fermentum (N4); experiment: Antimicrobial broth microdilution; type: cell-based; conditions: L. fermentum
Experimental: as §2, §3, §4, §5, §6, §7, §8, §9, §10, §11, §12, §13, §1

[11] = Hep-G2 hepatocellular carcinoma cells (ATCC HB-8065)
[12] = KB epidermoid carcinoma cells (ATCC CCL-17)
[13] = Lu-1 lung adenocarcinoma cells (ATCC HTB-57)
[14] = MCF-7 breast adenocarcinoma cells (ATCC HTB-22)
[15] = IC50 ± SE, α-glucosidase inhibition

T1 sequence (P53341 whole entry): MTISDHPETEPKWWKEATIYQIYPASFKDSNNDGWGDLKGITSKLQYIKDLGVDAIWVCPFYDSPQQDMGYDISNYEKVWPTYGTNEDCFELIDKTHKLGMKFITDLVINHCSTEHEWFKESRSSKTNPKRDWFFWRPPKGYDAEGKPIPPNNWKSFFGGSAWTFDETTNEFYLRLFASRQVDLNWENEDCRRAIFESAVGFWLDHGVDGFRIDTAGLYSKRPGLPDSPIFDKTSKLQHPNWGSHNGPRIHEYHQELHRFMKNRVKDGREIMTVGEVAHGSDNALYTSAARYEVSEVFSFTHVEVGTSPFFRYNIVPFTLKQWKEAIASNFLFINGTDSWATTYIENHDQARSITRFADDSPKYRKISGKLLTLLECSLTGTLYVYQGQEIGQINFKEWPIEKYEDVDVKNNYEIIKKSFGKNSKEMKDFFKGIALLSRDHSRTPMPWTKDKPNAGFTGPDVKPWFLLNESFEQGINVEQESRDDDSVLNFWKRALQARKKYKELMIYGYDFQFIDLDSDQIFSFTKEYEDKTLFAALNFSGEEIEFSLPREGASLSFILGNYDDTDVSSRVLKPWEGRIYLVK

SMILES | IC50 values, antioxidant test (DPPH) [1] [µg/mL] | IC50 at 72 h [2, 11] [µg/mL] | IC50 at 72 h [2, 12] [µg/mL] | IC50 at 72 h [2, 13] [µg/mL] | IC50 at 72 h [2, 14] [µg/mL] | IC50 [4] [µg/mL] | MIC [4] [µg/mL] | IC50 [5] [µg/mL] | MIC [5] [µg/mL] | IC50 [6] [µg/mL] | MIC [6] [µg/mL] | IC50 [7] [µg/mL] | MIC [7] [µg/mL] | IC50 [8] [µg/mL] | MIC [8] [µg/mL] | IC50 [9] [µg/mL] | MIC [9] [µg/mL] | IC50 [10] [µg/mL] | MIC [10] [µg/mL] | IC50 [3, 15] [µM] | further results
Cc1[nH]c2c3c(c(O)cc2c1CO)[C@H]1C[C@@H]2[C@@]4(C)CCC[C@@](C)(CO)[C@@H]4CC[C@@]32C=C1C(C)C [Compound 38] | 227.76 ± 4.9 (≈ 491 µM) | 50.8 ± 1.2 (≈ 110 µM) | 39.5 ± 1 (≈ 85.3 µM) | 58.1 ± 1.8 (≈ 125 µM) | 60.4 ± 1.6 (≈ 130 µM) | > 256 | > 256 | 102 ± 7.21 (≈ 221 µM) | 256 (≈ 552 µM) | > 256 | > 256 | > 256 | > 256 | 34.3 ± 1.75 (≈ 74 µM) | > 256 | > 256 | > 256 | > 256 | > 256 | – | IC50 ([3]; read-out: IC50 ± SE, α-glucosidase inhibition): 0.39 ± 0.03 µM
C#CCOC(=O)C1(C)CCCC2(C)C1CCC13C=C(C(C)C)C(CC12)C1=C3C(=O)C=CC1=O (centres unmarked) [Compound 48, Propynyl 13-isopropyl-7,10a-dimethyl-1,4-di oxo-4,5,6,6a,7,8,9,10,10a,10b,11,12-dodecahydro-1H-4b,12-ethenochrysene-7-carboxylate] | 177.45 ± 3.5 (≈ 397 µM) | 46 ± 0.8 (≈ 103 µM) | 30.5 ± 0.7 (≈ 68.3 µM) | 10.2 ± 0.18 (≈ 22.7 µM) | 39.2 ± 0.78 (≈ 87.9 µM) | > 256 | > 256 | 45 ± 2.18 (≈ 101 µM) | 256 (≈ 573 µM) | > 256 | > 256 | > 256 | > 256 | 8.29 ± 0.58 (≈ 18.6 µM) | 64 (≈ 143 µM) | > 256 | > 256 | 43.5 ± 2.52 (≈ 97.5 µM) | 256 (≈ 573 µM) | 0.68 ± 0.045 | melting point: 85 to 89 °C
CC(C)C1=CC23CCC4C(C)(C(=O)O)CCCC4(C)C2CC1c1c(OCCC#N)ccc(OCCC#N)c13 (centres unmarked) [Compound 50, 1,4-Bis(2′-cyanoethoxy)-13-isopropyl-7,10a-dimethyl-6,6a,7,8,9,10,10a,10b,11,12-decahydro-5H-4b,12-ethenochrysene-7-carboxylic acid] | 105.50 ± 2.2 (≈ 204 µM) | 110 ± 2.6 (≈ 213 µM) | 57.3 ± 1.2 (≈ 111 µM) | 69.8 ± 1.5 (≈ 135 µM) | 158 ± 4 (≈ 305 µM) | > 256 | > 256 | 11.3 ± 0.77 (≈ 21.8 µM) | 64 (≈ 124 µM) | > 256 | > 256 | > 256 | > 256 | 11 ± 0.83 (≈ 21.3 µM) | 64 (≈ 124 µM) | > 256 | > 256 | 116 ± 6.93 (≈ 224 µM) | > 256 | 0.23 ± 0.01 | melting point: 157 to 159 °C
